The test system of assay [1] is CDK8 (phosphorylation of STAT1 at serine 727 in A549 cells). Description: Cell based Phospho-STAT1 assay (IFNγ-stimulated A549 cells, AlphaLISA). As to conditions: Homo sapiens, A549, A549 cells, phospho-STAT1 after IFNγ stimulation. A digest of the protocol:
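A549 cells given serial compound dilutions for 1 h at 37 °C, then stimulated with IFNγ at 10 ng/mL final for 30 min. Lysate STAT1 Ser727 phosphorylation measured by AlphaLISA; % inhibition vs stimulated/unstimulated DMSO controls, IC50 by nonlinear regression.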
In general terms: Bead proximity is the source of the signal in Alpha formats.

Assay [2] relates to CDK8 (TCF/LEF luciferase reporter in HCT116 cells). Description: Cell based TCF/LEF reporter assay (HCT116+TCF/LEF luciferase). As to conditions: Homo sapiens, HCT-116, 24 h. In a few lines:
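Luciferase readout was corrected for viability (CellTiter-Fluor) and scaled between DMSO high and 10 uM CCT251545 low controls, giving IC50 by nonlinear regression. Compounds, serially diluted, were incubated 24 h at 37 °C on HCT116 clones stably expressing a TCF/LEF-driven luciferase reporter.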

pIC50: −log10 of the molar value.

The term pIC50 denotes the negative decadic logarithm of the IC50, by convention in mol/L.

Regarding `CC(C)(C#N)Cn1cc(-c2ccc(-c3cnn4ccnc(C5CCC(C#N)CC5)c34)cc2)cn1` (stereo not drawn) [Compound P-0046, (1s,4s)-4-(3-(4-(1-(2-cyano-2-methylpropyl)-1H-pyrazol-4-yl)phenyl)pyrazolo[1,5-a]pyrazin-4-yl)cyclohexane-1-carbonitrile], the pIC50 in assay [1] and in assay [2] was 7.00 to 10.00 throughout.
With `Cn1ncc2cc(-c3cnn4ccnc(C5=CCC(C(N)=O)CC5)c34)ccc21` (stereo not drawn) [Compound P-0136, 4-(3-(1-methyl-1H-indazol-5-yl)pyrazolo[1,5-a]pyrazin-4-yl)cyclohex-3-ene-1-carboxamide], the pIC50 in assay [1] and in assay [2] was 7.00 to 10.00 each time.
Take `Cn1cc(-c2ccc(-c3cnc4cccc(C5=CCC(C(N)=O)CC5)n34)cc2)cn1` (stereo not drawn) [Compound P-0416, 4-(3-(4-(1-methyl-1H-pyrazol-4-yl)phenyl)imidazo[1,2-a]pyridin-5-yl)cyclohex-3-ene-1-carboxamide]: the pIC50 in assay [1] and in assay [2] was 6.00 to 7.00 each time.
With `CC(=O)N1CCC(Oc2cccc3ncc(-c4ccc(-c5cnn(C(F)F)c5)cc4)n23)CC1` [Compound P-0304, 1-[4-[3-[4-[1-(difluoromethyl)pyrazol-4-yl]phenyl]imidazo[1,2-a]pyridin-5-yl]oxy-1-piperidyl]ethanone], the pIC50 in assay [1] and in assay [2] was 5.00 to 6.00 throughout.
On to `N#CC1CCC(c2cccn3ncc(-c4ccc(NCCN5CCOCC5)nc4)c23)CC1` (stereo not drawn) [Compound P-0138, 4-(3-(6-((2-morpholinoethyl)amino)pyridin-3-yl)pyrazolo[1,5-a]pyridin-4-yl)cyclohexane-1-carbonitrile], for which the pIC50 in assay [1] and in assay [2] was 7.00 to 10.00 throughout.
For the compound `N#CC1CC=C(c2cccn3ncc(-c4ccc(OCCCN5CCCCC5)cc4)c23)CC1` (stereo not drawn) [Compound P-0180, 4-(3-(4-(3-(piperidin-1-yl)propoxy)phenyl)pyrazolo[1,5-a]pyridin-4-yl)cyclohex-3-ene-1-carbonitrile], the pIC50 in assay [1] and in assay [2] was 7.00 to 10.00 throughout.

The record behind these values is patent US10703757B2, “Compounds and methods for CDK8 modulation and indications therefor” (Plexxikon Inc., priority 2016, dated 2020).
